Patent publication US8722343B2, “Methods and compositions for the diagnosis and treatment of diabetes” (priority 2008, dated 2014)

Columns and labels:
[1] = test system: βTC3 cells; assay: MTT cell viability assay in βTC3 cells; format: cell-based, mouse
Description: 1A: Glutamate induces a dose-dependent beta-cell death. 24 hrs after plating, αTC1 and βTC3 cells were incubated for five days with the indicated glutamate concentrations and viability was assessed by MTT assay. Data are presented as % Relative Growth Rate (RGR) versus controls (100%) and represent the mean±SE of at least 7 independent experiments (n=6). * p<0.01 vs ctrl; ° p<0.01 vs Glu 5 mM in αTC1.
1C: β-cell death is prevented by pharmacological inhibition of ionotropic channels. 24 hrs after plating, αTC1 and βTC3 cells were incubated for five days with 0.025 mM CNQX (left panel) or 0.1 mM APV (right panel), in the presence or the absence of 5 mM glutamate and viability was assessed by MTT assay. Data are presented as % RGR versus control samples (100%) and represent the mean±SE of three independent experiments (n=5). * p<0.05
6B. MTT assay. 24 hrs after plating, αTC1 and βTC3 cells were incubated for five days with different DHK concentrations and viability was assessed by MTT assay. Data are presented as % RGR versus control (100%) and represent the mean±SE of three independent experiments (n=8). * (DHK versus control) p<0.05
8B: MTT assay: 24 hrs after plating, βTC3 cells were incubated for five days with the indicated ceftriaxone concentrations in the presence or absence of 5 mM glutamate and viability was assayed by MTT assay. Data are presented as % RGR versus control (100%) and represent the mean±SE of three independent experiments (n=8). *(ceftriaxone versus relative control) p<0.05.
βTC3 and αTC1 cells were derived from progeny of transgenic mice expressing SV40 large T-antigen under control of the rat insulin II 5′-flanking region or rat preproglucagon 5′-flanking region, respectively (Powers et al, 1990) and were originally provided by Douglas Hanahan (Department of Biochemistry and Biophysics, University of California, San Francisco, Calif.). βTC3 were grown in RPMI 1640 11 mM glucose, supplemented with 10% heat inactivated fetal bovine serum, 2 mM L-glutamine, and 100 IU/ml streptomycin/penicillin, as previously described (Galbiati et al, 2002). Experiments were performed between the 27 and 33 passage of cell culture.
(§1) 3-(4,5-Dimethylthiazol-2-yl)-2,5-diphenyltetrazolium bromide (MTT) assay. βTC3 cells were seeded at a density of 8×10^3 cells/well onto 96-well culture plates. Cells were allowed to attach and grow for 24 h in standard medium. Then medium was replaced with fresh medium containing glutamate, DHK (Dihydrokainic Acid, Sigma Aldrich), glutamate receptor inhibitors APV and CNQX (Sigma Aldrich) or ceftriaxone (Sigma Aldrich) at the indicated concentrations. […] Coloured formazan product was determined spectrophotometrically at 540 nm. 20 islets/tube were used to assess viability in human isolated islets. Data are expressed as % Relative Growth Rate (% RGR) versus control samples.

[2] = test system: GLT1; assay: GLT1 expression in βTC3 cells by western blotting; format: cell-based, mouse; conditions: 10 μM ceftriaxone, five days
Description: (§2) 6D ShRNA interference. βTC3 cells were transfected with two different shRNA directed against GLT1 (Sh1, Sh3) or a control shRNA (ShC), and three days after transfection, cells were assayed for 3[H]-D-aspartate uptake (b) or lysed and the presence of GLT assayed by western blotting (a) or fixed and processed for TUNEL (c).
8A: GL1 expression. 150.000 cells were plated on […] diameter Petri dishes and 24 hours after plating, they were incubated with 10 μM ceftriaxone for five days. After incubation cells were lysed and 100 μg of whole lysate extracts were separated onto a 9% SDS-PAGE and the expression of glutamate transporter was detected using specific anti-GLT1 or anti-β-catenin antibodies. The expression of GLT1 was quantified by densitometry, and normalized over β-catenin content. Shown is a representative experiment; Similar results were obtained in two other independent experiments.
βTC3 or αTC1 cells were seeded onto 6-cm tissue culture plates and allowed to attach and grow until confluence. […] After 1 h at 4 C, lysates were centrifuged at 13,000 rpm for 10 min, and 50 μg of total extracted proteins were analyzed on 9% SDS-PAGE and transferred onto nitrocellulose (Shleicher and Shull, Dassel, Germany). […] The signal intensities were densitometrically quantified using Scion Image software. […]

[3] = test system: βTC3 cells; assay: TUNEL apoptosis assay in βTC3 cells; format: cell-based; conditions: 0.5 mM glutamate for 5 days
Description: 1B: Glutamate overstimulation causes increased β-cell apoptosis. 24 hours after plating, βTC3 cells were incubated for five days with 0.5 mM glutamate, and cell apoptosis was assessed by TUNEL assay. The cell nuclei were labelled with PrI. Histograms on the right represent TUNEL positive cells per field, and are the mean±SE of two independent experiments performed in duplicate.
6C TUNEL assay: 24 hours after plating, βTC3 cells were incubated for five days with 0.1 mM DHK, and cell apoptosis was assessed by TUNEL assay. Cell nuclei were labelled with PrI. Data are presented as TUNEL positive cells per field (histograms on the right), and are the mean±SE of two independent experiments performed in duplicate. * P<0.05
as §2
Apoptosis of β-TC3 cells was estimated using the terminal deoxynucleotidyltransferase-mediated dUTP-biotin nick end-labelling assay (TUNEL). […] Tunel-positive cells were counted by two independent observers using a 40× objective from at least 40 randomly selected fields per coverslip. […]

[4] = test system: αTC1 cells; assay: MTT cell viability assay in αTC1 cells; format: cell-based, mouse
Description: 1A: Glutamate induces a dose-dependent beta-cell death. […] Data are presented as % Relative Growth Rate (RGR) versus controls (100%) and represent the mean±SE of at least 7 independent experiments (n=6). * p<0.01 vs ctrl; ° p<0.01 vs Glu 5 mM in αTC1.
αTC1 were cultured in DMEM 25 mM glucose supplemented with 10% heat inactivated fetal bovine serum, 2 mM glutamine, and 100 IU/ml streptomycin/penicillin, as previously described (Galbiati et al, 2002). Experiments were performed between the 33 and 43 passage of cell culture. Cells were cultured under standard humidified conditions of 5% CO2 at 37° C.
as §1

[5] = test system: human isolated islets; format: cell-based; conditions: 16.7 mM glucose; DHK (0.3 mM) or L-glutamate (0.5 mM) alone
Description: FIG. 5: GLT1 CONTROLS HORMONE SECRETION IN HUMAN ISOLATED ISLETS. 48 hours after isolation, 20 human islets per tube were exposed to 3.3 or 16.7 mM glucose in the absence and the presence of either L-glutamate (0.5 mM), DHK (0.3 mM) or both L-glutamate and DHK, and insulin secretion measured. Levels of secreted insulin from islets were normalized to total insulin content. Data are expressed as % of insulin content and represent the mean±SD of two independent experiments performer in duplicate.
Insulin content and secretion were assessed on 20 islets, using a Micro-particle Enzyme Immunoassay (MEIA insulin, IMX System, Abbott Laboratories, Abbott Park, Ill., USA). Insulin secretion in response to increasing glucose concentrations, glutamate or DHK treatment was assessed by static incubation as previously described (Federici et al, 2000). Briefly, batches of 20 islets were pre-incubated in 1 ml of Krebs-Ringer buffer (KRB) supplemented with 3, 3 or 16.7 mM glucose for 30 min. Then the supernatants were replaced with Kreb's buffer containing 3, 3 or 16.7 mM glucose plus glutamate or the specific GLT1 inhibitor DHK (Sigma, St Louis, Mo., USA), as indicated. After a 30-min incubation at 37° C., the medium was removed and frozen for immunoassays. At the end of incubation, islets were lysed in lyses buffer and the total insulin content determined by immunoassay. […]

[6] = test system: human isolated islets; assay: MTT viability assay in isolated human islets; format: cell-based; conditions: 5 mM glutamate, three days, 16.7 mM glucose
Description: 7A: MTT assay: 48 hrs after isolation, 20 islets/tube were incubated for three days with the indicated glutamate and DHK concentrations in the presence of 3.3 mM glucose or 16.7 mM glucose and viability was assessed by MTT assay. Data are expressed as % Relative Growth Rate (% RGR) versus control samples and are the means±SE of three different experiments performed in triplicate.
Human pancreatic islets were isolated from the pancreases of cadaveric multiorgan donors by using the procedure already described by Ricordi (Ricordi, et al, 1988). The islets used in this study were isolated from eight different organs. After the isolation, the islets were purified from the contaminant exocrine tissue by centrifugation on Ficoll gradients, obtaining a final purity that ranged from 60% to 80%, as assayed by dithizone staining (Ricordi et al, 1988). Islets were then cultured in RPMI 1640 tissue culture medium. […]
3-(4,5-Dimethylthiazol-2-yl)-2,5-diphenyltetrazolium bromide (MTT) assay. βTC3 cells were seeded at a density of 8×10^3 cells/well onto 96-well culture plates. […] After five days incubation, cell viability was assessed using the MTT method, according to the manufacturer's protocols (Sigma Aldrich). Coloured formazan product was determined spectrophotometrically at 540 nm. […] Data are expressed as % Relative Growth Rate (% RGR) versus control samples.

[7] = acute exposure (15 min, 0.5 μM glutamate) or exposure for 2 days

## N#Cc1cc2c(cc1[N+](=O)[O-])=NC(=O)C(=O)N=2 [CNQX, 6-Cyano-7-nitroquinoxaline-2,3-dione]
[1]; 0.025 mM CNQX with 5 mM glutamate, five days
  increase in RGR relative to 5 mM glutamate: 30%
[1]; co-administration with 5 mM glutamate, five days, 0.025 mM CNQX or 0.1 mM APV
  prevention of vulnerability of β-cells to glutamate: partially prevented

## CO/N=C(\C(=O)N[C@@H]1C(=O)N2C(C(=O)O)=C(CSc3nc(=O)c(=O)[nH]n3C)CS[C@H]12)c1csc(N)n1 [ceftriaxone]
[1]; five days with ceftriaxone, 5 mM glutamate
  protection from glutamate toxicity: dose-dependent protection
[2]
  GLT1/EAAT2 transporter expression: increased transporter's expression

## N[C@@H](CCC(=O)O)C(=O)O [glutamate]
[1]; 0.05 mM glutamate, five days
  reduction in RGR (cell viability): 11.53 ± 0.52%
[1]; 5 mM glutamate, five days
  reduction in RGR (cell viability): 51.46 ± 2.61%
[1]; [7]
  effect on cell survival: did not find any effect
[3]
  number of TUNEL positive cells: significant increase
[4]; 0.05 to 5 mM glutamate, five days
  glutamate toxicity (cell viability): detectable only at the highest glutamate concentration (5 mM)
[4]; [7]
  effect on cell survival: did not find any effect
[5]
  effect on insulin secretion: No effect
[6]
  RGR decrease (cell viability): 18%
